Like-named read-outs stand apart in the source and are kept apart here.
How the values were obtained:
[1] = system: test plant species; assay: Post-emergent herbicidal activity test (greenhouse, foliar spray, visual growth reduction); assay type: in vivo; details: post-emergence, 336 h, 140 g ai/ha
Outline: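 Visual scoring 14 d after treatment (0 = no injury, 100 = complete control) against nontreated and solvent-blank plants gave percent growth reduction. Foliar application used a track sprayer delivering 187 L/ha to seedlings at first or second true leaf stage, grown at 23–29 °C day, ~15 h photoperiod.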

[2] = ALOMY: blackgrass (Alopecurus myosuroides), 14 days after application, read-out: Visual Growth Reduction (%) 14 Days After Application, ALOMY
[3] = AMARE: redroot pigweed (Amaranthus retroflexus), 14 days after application, read-out: Visual Growth Reduction (%) 14 Days After Application, AMARE
[4] = AVEFA: wild oat (Avena fatua), 14 days after application, read-out: Visual Growth Reduction (%) 14 Days After Application, AVEFA
[5] = CHEAL: lambsquarters (Chenopodium album), 14 days after application, read-out: Visual Growth Reduction (%) 14 Days After Application, CHEAL
[6] = CIRAR: canada thistle (Cirsium arvense), 14 days after application, read-out: Visual Growth Reduction (%) 14 Days After Application, CIRAR
[7] = CYPES: yellow nutsedge (Cyperus esculentus), 14 days after application, read-out: Visual Growth Reduction (%) 14 Days After Application, CYPES
[8] = DIGSA: crabgrass (Digitaria sanguinalis), 14 days after application, read-out: Visual Growth Reduction (%) 14 Days After Application, DIGSA
[9] = ECHCG: barnyardgrass (Echinochloa crus-galli), 14 days after application, read-out: Visual Growth Reduction (%) 14 Days After Application, ECHCG
[10] = IPOHE: ivy-leaf morning glory (Ipomoea hederacea), 14 days after application, read-out: Visual Growth Reduction (%) 14 Days After Application, IPOHE
[11] = KCHSC: kochia (Bassia scoparia), 14 days after application, read-out: Visual Growth Reduction (%) 14 Days After Application, KCHSC
[12] = ORYSA: rice (Oryza sativa), 14 days after application, read-out: Visual Growth Reduction (%) 14 Days After Application, ORYSA
[13] = SETFA: giant foxtail (Setaria faberi), 14 days after application, read-out: Visual Growth Reduction (%) 14 Days After Application, SETFA
[14] = SORVU: grain sorghum (Sorghum vulgare), 14 days after application, read-out: Visual Growth Reduction (%) 14 Days After Application, SORVU
[15] = STEME: common chickweed (Stellaria media), 14 days after application, read-out: Visual Growth Reduction (%) 14 Days After Application, STEME
[16] = TRZAS: wheat, spring (Triticum aestivum), 14 days after application, read-out: Visual Growth Reduction (%) 14 Days After Application, TRZAS

| Compound | pest or weed control at 140 g/ha [1, 2] | pest or weed control at 140 g/ha [1, 3] | pest or weed control at 140 g/ha [1, 4] | pest or weed control at 140 g/ha [1, 5] | pest or weed control at 140 g/ha [1, 6] | pest or weed control at 140 g/ha [1, 7] | pest or weed control at 140 g/ha [1, 8] | pest or weed control at 140 g/ha [1, 9] | pest or weed control at 140 g/ha [1, 10] | pest or weed control at 140 g/ha [1, 11] | pest or weed control at 140 g/ha [1, 12] | pest or weed control at 140 g/ha [1, 13] | pest or weed control at 140 g/ha [1, 14] | pest or weed control at 140 g/ha [1, 15] | pest or weed control at 140 g/ha [1, 16] | melting point | further results |
| --- | --- | --- | --- | --- | --- | --- | --- | --- | --- | --- | --- | --- | --- | --- | --- | --- | --- |
| COC(=O)c1nc(-c2ccc(C(F)(F)F)cc2Cl)cc(C)c1Cl [F33, methyl 3-chloro-6-(2-chloro-4-(trifluoromethyl)phenyl)-4-methylpicolinate] | 0 to 29% | 0 to 29% | 0 to 29% | 45 to 59% | 45 to 59% | 0 to 29% | 30 to 44% | 0 to 29% | 85 to 94% | 0 to 29% | 0 to 29% | 0 to 29% | 60 to 74% | 0 to 29% | 0 to 29% | 61 to 63 °C |  |
| O=C(OCc1ccccc1)c1nc(-c2ccc(C(F)(F)F)cc2Cl)ccc1Cl [F44, benzyl 3-chloro-6-(2-chloro-4-(trifluoromethyl)phenyl)picolinate] | 30 to 44% | 95 to 100% | 45 to 59% | 95 to 100% | 95 to 100% | 0 to 29% | 75 to 84% | 45 to 59% | 95 to 100% | 85 to 94% | 0 to 29% | 85 to 94% | 85 to 94% | 0 to 29% | 75 to 84% | 56 to 57 °C |  |
| COC(=O)c1nc(-c2cc(F)c(OC)cc2F)ccc1Cl [F291, Methyl 3-chloro-6-(2,5-difluoro-4-methoxyphenyl) picolinate] |  |  |  |  |  |  |  | 0 to 29% | 0 to 29% | 0 to 29% | 0 to 29% | 0 to 29% | 0 to 29% | 0 to 29% | 0 to 29% |  | pest or weed control at 140 g/ha ([1]; blackgrass (Alopecurus myosuroides), 14 Days After Application, read-out: Visual Growth Reduction (%) ALOMY): 0 to 29%; pest or weed control at 140 g/ha ([1]; canada thistle (Cirsium arvense), 14 Days After Application, read-out: Visual Growth Reduction (%) CIRAR): 30 to 44%; pest or weed control at 140 g/ha ([1]; crabgrass (Digitaria sanguinalis), 14 Days After Application, read-out: Visual Growth Reduction (%) DIGSA): 0 to 29%; pest or weed control at 140 g/ha ([1]; lambsquarters (Chenopodium album), 14 Days After Application, read-out: Visual Growth Reduction (%) CHEAL): 45 to 59%; pest or weed control at 140 g/ha ([1]; redroot pigweed (Amaranthus retroflexus), 14 Days After Application, read-out: Visual Growth Reduction (%) AMARE): 0 to 29%; pest or weed control at 140 g/ha ([1]; wild oat (Avena fatua), 14 Days After Application, read-out: Visual Growth Reduction (%) AVEFA): 0 to 29%; pest or weed control at 140 g/ha ([1]; yellow nutsedge (Cyperus esculentus), 14 Days After Application, read-out: Visual Growth Reduction (%) CYPES): 0 to 29% |
| C#Cc1ccc(-c2ccc(Cl)c(C(=O)OC)n2)c(Cl)c1 [F18, Methyl 3-chloro-6-(2-chloro-4-ethynylphenyl) picolinate] | 0 to 29% | 0 to 29% | 0 to 29% | 0 to 29% | 0 to 29% | 0 to 29% | 0 to 29% |  |  |  |  |  |  |  |  |  | pest or weed control at 140 g/ha ([1]; barnyardgrass (Echinochloa crus-galli), 14 Days After Application, read-out: Visual Growth Reduction (%) ECHCG): 0 to 29%; pest or weed control at 140 g/ha ([1]; common chickweed (Stellaria media), 14 Days After Application, read-out: Visual Growth Reduction (%) STEME): 0 to 29%; pest or weed control at 140 g/ha ([1]; giant foxtail (Setaria faberi), 14 Days After Application, read-out: Visual Growth Reduction (%) SETFA): 0 to 29%; pest or weed control at 140 g/ha ([1]; ivy-leaf morning glory (Ipomoea hederacea), 14 Days After Application, read-out: Visual Growth Reduction (%) IPOHE): 0 to 29%; pest or weed control at 140 g/ha ([1]; johnsongrass (Sorghum vulgare), 14 Days After Application, read-out: Visual Growth Reduction (%) SORVU): 0 to 29%; pest or weed control at 140 g/ha ([1]; kochia (Bassia scoparia), 14 Days After Application, read-out: Visual Growth Reduction (%) KCHSC): 0 to 29%; pest or weed control at 140 g/ha ([1]; rice (Oryza sativa), 14 Days After Application, read-out: Visual Growth Reduction (%) ORYSA): 0 to 29%; pest or weed control at 140 g/ha ([1]; wheat, spring (Triticum aestivum), 14 Days After Application, read-out: Visual Growth Reduction (%) TRZAS): 0 to 29% |
